Test results from US4469848A, “Deodorant product for surface treatment” (priority 1978, dated 1984).

Key:
[1] = Morpholine test: depression of partial vapour pressure of morpholine relative to Raoult's Law (headspace GC); conditions: material 1 g + morpholine 0.25 g, 37° C., 30 minutes
[2] = target: T1, lipoxidase (ECl.13.1.13) (Glycine max, UniProt P08170); test: Lipoxidase test: inhibition of lipoxidase-catalysed oxidation of linoleic acid to hydroperoxide (234 nm); type: biochemical; conditions: 0.5% by weight solution of material in ethanol as test substrate solvent; pH 9.0 borate buffer
T1 sequence (P08170 1-839): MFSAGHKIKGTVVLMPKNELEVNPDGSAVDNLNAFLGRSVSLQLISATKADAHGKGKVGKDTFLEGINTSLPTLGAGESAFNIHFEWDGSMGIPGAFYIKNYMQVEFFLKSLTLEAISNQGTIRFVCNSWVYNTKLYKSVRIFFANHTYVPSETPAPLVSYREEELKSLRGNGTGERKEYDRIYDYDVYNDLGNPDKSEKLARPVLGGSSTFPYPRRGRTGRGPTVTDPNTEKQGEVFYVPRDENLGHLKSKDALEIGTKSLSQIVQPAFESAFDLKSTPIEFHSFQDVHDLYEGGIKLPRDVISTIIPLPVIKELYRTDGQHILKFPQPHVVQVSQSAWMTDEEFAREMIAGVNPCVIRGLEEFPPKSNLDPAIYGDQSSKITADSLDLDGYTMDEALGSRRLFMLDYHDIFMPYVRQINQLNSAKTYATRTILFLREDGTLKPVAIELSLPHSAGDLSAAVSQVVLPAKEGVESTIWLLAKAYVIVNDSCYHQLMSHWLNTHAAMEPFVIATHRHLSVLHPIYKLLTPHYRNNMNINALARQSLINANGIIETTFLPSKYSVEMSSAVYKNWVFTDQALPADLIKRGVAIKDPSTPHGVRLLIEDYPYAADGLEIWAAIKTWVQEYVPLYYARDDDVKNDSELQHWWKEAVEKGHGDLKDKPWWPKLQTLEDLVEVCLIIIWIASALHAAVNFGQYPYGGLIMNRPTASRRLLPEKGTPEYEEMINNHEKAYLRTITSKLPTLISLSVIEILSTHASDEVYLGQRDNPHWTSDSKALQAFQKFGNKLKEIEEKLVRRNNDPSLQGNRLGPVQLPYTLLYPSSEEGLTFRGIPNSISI

Molecule | Raoult variance ratio (RVR) [1] | lipoxidase inhibiting capacity (LIC), % inhibition [2] [%]
CCCCCCCC1CCCC1=O (stereo not drawn) [2-n-heptylcyclopentanone] | 1.05 | –
CC1(C)CCCC2(C)C1CCC1(C)OCCC12 (stereo not drawn) [3a-Methyl-dodecahydro-6,6,9a-trimethylnaphtho(2,1-b)furan] | 1.30 | –
O=C(OCc1ccccc1)c1ccccc1O [Benzyl salicylate] | 1.58 | –
Cc1ccc(C(C)C)cc1O [Carvacrol] | 1.43 | –
O=c1ccc2ccccc2o1 [Coumarin] | 1.22 | –
CCOC(=O)c1ccccc1C(=O)OCC [Diethyl phthalate] | 1.20 | –
CCOc1cc(C=O)ccc1O [Ethyl vanillin] | 1.43 | –
CCCCCCC(CCOC(C)=O)OC(C)=O (stereo not drawn) [Nonanediol-1,3-diacetate] | 1.17 | –
CCCCCC1CCC(=O)O1 (stereo not drawn) [Nonanolide-1:4] | 0.87 | –
OCCc1ccccc1 [Phenylether alcohol] | 1.24 | –
CC(C)CCOC(=O)c1ccccc1O [iso-Amyl salicylate] | 1.24 | –
C/C=C\c1ccc(O)c(OC)c1 [iso-Eugenol] | 1.48 | –
CC(=O)OC1CCCCC1C(C)(C)C (stereo not drawn) [o-t-Butylcyclohexyl acetate] | 1.08 | –
CCC(C)(C)C1CCC(=O)CC1 [p-t-Amyl cyclohexanone] | 1.10 | –
CC(=O)OC1CCC(C(C)(C)C)CC1 (stereo not drawn) [p-t-Butylcyclohexyl acetate] | 0.98 | –
CC(=O)c1ccc2ccccc2c1 [β-Methyl naphthyl ketone] | 0.96 | –
Dimyrcetol | 1.22 | 16
Tetrahydromuguol | 1.23 | 24
i-Nonyl acetate | 0.83 | 50
i-Nonyl formate | 1.49 | 19
